Series [1] deals with T1, Papain from papaya latex (Carica papaya, UniProt P00784).
T1 construct: from tissue; host or cells: papaya latex
T1 sequence (P00784 134-345): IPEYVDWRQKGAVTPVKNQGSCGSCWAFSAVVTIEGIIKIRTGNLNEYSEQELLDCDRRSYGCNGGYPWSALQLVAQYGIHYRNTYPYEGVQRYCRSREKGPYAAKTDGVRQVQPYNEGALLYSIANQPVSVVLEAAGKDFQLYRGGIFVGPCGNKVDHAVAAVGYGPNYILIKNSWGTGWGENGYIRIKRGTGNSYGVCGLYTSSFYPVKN
As to the kind of experiment: Photochemical restoration (re-activation) of NQMP-inhibited papain activity. Type of series: biochemical. Particulars: for Papain Activity: photolysate with inhibited papain, NQMP-TEG, cysteine plus 2-(2-(vinyloxy)ethoxy)ethanol equal to initial NQMP-TEG. The method, then: (§1) Papain was activated by incubation the enzyme with 100-40 fold excess of free cysteine for 45 minutes in PBS solution. The concentration of the papain in the stock solution was determined by its […] at 280 nm (s=57600 M^−1 cm^−1) (Pace et. al., Protein Sci. 1995, 4:2411-2423). The activity of the protease was measured using N-α-benzoyl-L-arginine-p-nitroanilide (L-BAPNA). […] The formation of the latter can be followed by the rise of characteristic absorbance at 410 nm (ε=9800). Water-soluble NQMP-TEG (FIG. 13) was employed for inhibition experiments.
A sample of deactivated papain was prepared as described above. The protein was separated from low molecular weight compounds using gel filtration (Sephadex PD-10 column). To check for the completeness of inhibition an excess of cysteine was added to a PBS solution of the inhibited papain and incubated for 45 minutes. […] This solution was then re-irradiated with 350 nm fluorescent lamps for 15 minutes.
Alternatively, re-activation of papain was achieved without isolation of inhibited enzyme. Ethyl vinyl ether derivative, 2-(2-(vinyloxy)ethoxy)ethanol, was added to a photolysate containing inhibited papain, NQMP-TEG, and cysteine in PBS solution. The amount of vinyl ether added was equal to the initial amount of NQMP-TEG.

A short description of series [2]: Cysteine specificity of NQMP photo-click reaction, peptides lacking free cysteine. Particulars: irradiation of peptides 6 and 7 with 4 to 12 equivalents of NQMP-TEG, HPLC analysis. The protocol:
To test the cysteine specificity of NQMP photo-click reaction, two analogs of peptide 4 containing the same amino acid sequence but lacking free cysteine were prepared. In nonapeptide 6 cysteine residue was replaced with methionine, while the thiol group in 4 was converted into disulfide bond by oxidative dimerization to form oligopeptide 7. […] These experiments show the high specificity of addition of photochemically generated oNQM to cysteine thiol group.
0.1 mM PBS solutions of peptides 4, 6, and 7 were irradiated with 300 or 350 nm fluorescent lamps in the presence of variable amounts of NQMP-TEG (2c, 0.1-0.4 mM). Composition of the photolysates was analyzed using HPLC (FIG. 17). Peptide 4-NQMP-TEG conjugate (5) was isolated using semi-prep C-18 HPLC column and characterized by ESI-HRMS (FIG. 18). The concentration of labeled peptide 5 was determined by UV spectroscopy using characteristic 330 nm band of NQMP chromophore. This solution was then used in calibration of HPLC instruments.

The target in series [3] is T1, Papain from papaya latex. As to the kind of experiment: Photochemical inhibition of papain activity by NQMP-TEG (L-BAPNA hydrolysis rate). Format: biochemical. The settings on record: for Relative activity: PBS. The method, then: as §1
A PBS solution containing 1.7 μM of papain, 80 μM of cysteine and variable amounts of NQMP-TEG was irradiated for 2 minutes with 350 nm fluorescent lamps. A stock solution of BAPNA was then added to a photolysate to achieve 800 μM concentration of the substrate and rate of hydrolysis was measured (Table 5, FIG. 14).
A PBS solution containing 0.91 μM of papain, 44 μM of cysteine and 109 μM of NQMP-TEG was irradiated for 2, 3 or 4 minutes with 350 nm fluorescent lamps. A stock solution of BAPNA was then added to a photolysate to achieve 200 μM concentration of the substrate and rate of hydrolysis was measured (Table 6, FIG. 15).

Series [4] can be described thus: Photochemical stability on irradiation in PBS, HPLC analysis. Type of series: physicochemical. Particulars: 0.1 mM PBS solutions irradiated separately for 12 minutes, 300 and 350 nm fluorescent lamps. The protocol: It is important to note that peptide 4 and NQMP-TEG (1c) are photochemically stable under these conditions. […] Obviously, NQMP 1c still forms oNQM 2c but in the absence of thiols the latter rapidly undergoes hydration back to starting materials.
0.1 mM PBS solutions of NQMP-TEG (2c) and peptide 4 were irradiated separately for 12 minutes using both 300 and 350 nm fluorescent lamps.

A short description of series [5]: Aqueous solubility of NQMP derivatives. The settings on record: wholly aqueous solutions.

As for “8-TEG-3-(hydroxymethyl)naphthalen-2-ol [NQMP-TEG]”, the “Papain Activity” value on Papain from papaya latex [1] (350 nm irradiation 0 minutes) was 0%; at Papain from papaya latex [1] (350 nm irradiation 3 minutes), 28%; on Papain from papaya latex [1] (350 nm irradiation 4 minutes), 40%; at Papain from papaya latex [1] (350 nm irradiation 5 minutes), 47%; at Papain from papaya latex [1] (350 nm irradiation 7 minutes) it was 58%; on Papain from papaya latex [1] (350 nm irradiation 8 minutes), 76%. Moreover, the “Labeling of peptides lacking free cysteine (selectivity)” value in series [2] is “produced no labeled products”. Besides, the Relative activity on Papain from papaya latex [3] (100 μM NQMP-TEG, 1.7 μM papain, 80 μM cysteine, 2 minutes irradiation at 350 nm, 800 μM BAPNA) worked out at 65%; on Papain from papaya latex [3] (109 μM NQMP-TEG, 0.91 μM papain, 44 μM cysteine, 2 minutes irradiation at 350 nm, 200 μM BAPNA) it was 52%; at Papain from papaya latex [3] (109 μM NQMP-TEG, 0.91 μM papain, 44 μM cysteine, 3 minutes irradiation at 350 nm, 200 μM BAPNA) it was 27%; on Papain from papaya latex [3] (109 μM NQMP-TEG, 0.91 μM papain, 44 μM cysteine, 4 minutes irradiation at 350 nm, 200 μM BAPNA), 0%; at Papain from papaya latex [3] (109 μM NQMP-TEG, 0.91 μM papain, 44 μM cysteine, irradiation time 0 minutes, 200 μM BAPNA) it was 100%; at Papain from papaya latex [3] (150 μM NQMP-TEG, 1.7 μM papain, 80 μM cysteine, 2 minutes irradiation at 350 nm, 800 μM BAPNA) it was 48%. Besides, the Relative activity is 43% at Papain from papaya latex [3] (200 μM NQMP-TEG, 1.7 μM papain, 80 μM cysteine, 2 minutes irradiation at 350 nm, 800 μM BAPNA); 27% on Papain from papaya latex [3] (250 μM NQMP-TEG, 1.7 μM papain, 80 μM cysteine, 2 minutes irradiation at 350 nm, 800 μM BAPNA); 17% on Papain from papaya latex [3] (300 μM NQMP-TEG, 1.7 μM papain, 80 μM cysteine, 2 minutes irradiation at 350 nm, 800 μM BAPNA); 0% at Papain from papaya latex [3] (400 μM NQMP-TEG, 1.7 μM papain, 80 μM cysteine, 2 minutes irradiation at 350 nm, 800 μM BAPNA). Moreover, the “Concentration required to completely inhibit the activity of Papain” value on Papain from papaya latex [3] (2 minutes of irradiation at 350 nm, 1.7 μM papain, 80 μM cysteine) was “about 350 μM”. For the same molecule, in series [4], the “Photochemical stability (decomposition or losses by HPLC)” value is “No decomposition or losses of materials were detected”. In addition, in series [5], the Aqueous solubility entry was “freely soluble in wholly aqueous solutions up to millimolar concentrations”.
Take `OCc1cc2ccccc2cc1O` [1a, 3-hydroxy-2-naphthalenemethanol]: the Aqueous solubility result in series [5] is listed as “rather low aqueous solubility”.
Still for that read-out and setting: with `OCc1cc2cccc(O)c2cc1O` [1b, 6-(hydroxymethyl)naphthalene-1,7-diol] the entry was “rather low aqueous solubility”.
As for “Ac-Cys-Lys-Tyr-Trp-Gly-Arg-Asp-Ser-NH2 (Ac-CKYWGRDS-NH2) [compound 4]”, the “Photochemical stability (decomposition or losses by HPLC)” value in series [4] is “No decomposition or losses of materials were detected”.

B1: inhibited papain: papain deactivated by irradiation with NQMP-TEG; a single NQMP-TEG unit added as thioether (conjugate, UniProt P00784 134-345, looked up)
Papain: T1 sequence (P00784 134-345)
modifications: NQMP-TEG thioether adduct, inactivated
Turning to B1, the “Protease activity (L-BAPNA cleavage) after incubation with excess cysteine” value with Papain from papaya latex [1] (gel-filtered inhibited papain in PBS, excess of cysteine, 45 minutes, no re-irradiation) was “does not cleave L-BAPNA”. Besides, the “Restoration of papain activity relative to wild type papain” value in the series with Papain from papaya latex [1] (gel-filtered inhibited papain, no NQMP reagent, re-irradiated with 350 nm lamps for 15 minutes) is 85-92%.

The record behind these values is US20140054163A1, “METHODS FOR REACTING CYSTEINE RESIDUES IN PEPTIDES AND PROTEINS” (University of George Risearch Foundation, Inc., priority 2012, published 2014).
